Reference: patent publication US6737383B1, “Herbicidal oxadiazolidines” (priority 1999, dated 2004)

Legend:
[1] = test system: giant foxtail; assay: Test B pre/postemergence giant foxtail; type: in vivo, Setaria faberii
Text: (§1) Seeds of bedstraw (Galium aparine), blackgrass (Alopecurus myosuroides), surinam grass (Brachiaria decumbens), cocklebur (Xanthium strumarium), corn (Zea mays), crabgrass (Digitaria sanguinalis), giant foxtail (Setaria faberii), morningglory (Ipomoea hederacea), pigweed (Amaranthus retroflexus), rape (Brassica napus), soybean (Glycine max), sugar beet (Beta vulgaris), velvetleaf (Abutilon theophrasti), wheat (Triticum aestivum), wild oat (Avena fatua) and purple nutsedge (Cyperus rotundus) tubers were planted and treated preemnergence with test chemicals formulated in a non-phytotoxic solvent mixture which included a surfactant.
(§2) At the same time, these crop and weed species were also treated with postemergence applications of test chemicals formulated in the same manner. Plants ranged in height from 2 to 18 cm (1- to 4-leaf stage) for postemergence treatments. Plant species in the flood test consisted of rice (Oryza sativa), smallflower flatsedge (Cyperus difformis), duck salad (Heteranthera limosa) and bamyardgrass (Echinochloa crus-galli) grown to the 2-leaf stage for testing. Treated plants and controls were maintained in a greenhouse for twelve to sixteen days, after which all species were compared to controls and visually evaluated. Plant response ratings, summarized in Table B, are based on a scale of 0 to 10 where 0 is no effect and 10 is complete control. A dash (−) response means no test result.

[2] = test system: sugar beet; assay: Test B pre/postemergence sugar beet; type: in vivo, Beta vulgaris
Text: as §1, §2

[3] = test system: wild oat; assay: Test B pre/postemergence wild oat; type: in vivo, Avena fatua
Outline: (§3)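 Herbicidal effect was estimated by eye on a ten-point control scale after plants spent twelve to sixteen days in a greenhouse following soil or foliar treatment. Foliar sprays targeted plants at one to four leaves; all doses were formulated in a non-phytotoxic solvent with surfactant.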

[4] = test system: surinam grass; assay: Test B pre/postemergence surinam grass; type: in vivo, Brachiaria decumbens
Outline: as §3

[5] = test system: corn; assay: Test B pre/postemergence corn; type: in vivo, Zea mays
Text: as §1, §2

[6] = test system: pigweed; assay: Test B pre/postemergence pigweed; type: in vivo, Amaranthus retroflexus
Text: as §1, §2

[7] = test system: velvetleaf; assay: Test B pre/postemergence velvetleaf; type: in vivo, Abutilon theophrasti
Text: as §1, §2

[8] = test system: crabgrass; assay: Test B pre/postemergence crabgrass; type: in vivo, Digitaria sanguinalis
Text: as §1, §2

[9] = test system: purple nutsedge; assay: Test B pre/postemergence purple nutsedge; type: in vivo, Cyperus rotundus
Text: as §1, §2

[10] = test system: cocklebur; assay: Test B pre/postemergence cocklebur; type: in vivo, Xanthium strumarium
Outline: as §3

[11] = test system: bedstraw; assay: Test B pre/postemergence bedstraw; type: in vivo, Galium aparine; settings: Rate 62 g/ha, Postemergence; scale of 0 to 10 where 0 is no effect and 10 is complete control
Outline: as §3

[12] = test system: wheat; assay: Test B pre/postemergence wheat; type: in vivo, Triticum aestivum
Text: as §1, §2

[13] = test system: rape; assay: Test B pre/postemergence rape; type: in vivo, Brassica napus
Text: as §1, §2

[14] = test system: blackgrass; assay: Test B pre/postemergence blackgrass; type: in vivo, Alopecurus myosuroides
Text: as §1, §2

[15] = test system: morningglory; assay: Test B pre/postemergence morningglory; type: in vivo, Ipomoea hederacea
Outline: as §3

[16] = test system: soybean; assay: Test B pre/postemergence soybean; type: in vivo, Glycine max
Outline: as §3

[17] = Preemergence, Rate 62 g/ha, scale of 0 to 10 where 0 is no effect and 10 is complete control
[18] = Preemergence, Rate 250 g/ha, scale of 0 to 10 where 0 is no effect and 10 is complete control
[19] = Preemergence, Rate 500 g/ha, scale of 0 to 10 where 0 is no effect and 10 is complete control
[20] = Rate 125 g/ha, Preemergence, scale of 0 to 10 where 0 is no effect and 10 is complete control
[21] = Rate 500 g/ha, Postemergence, scale 0 to 10, 0 no effect, 10 complete control
[22] = Rate 62 g/ha, Postemergence, scale of 0 to 10 where 0 is no effect and 10 is complete control
[23] = Rate 125 g/ha, Postemergence, scale 0 to 10

With `CC(C)N(C(=O)n1oc(=O)n(COCc2ccccc2)c1=O)c1ccc(F)cc1` [Compound 261] the “Giant foxtail plant response rating” value [1, 17] was 8, the “Giant foxtail plant response rating” value [1, 18] was 9 and the “Plant response rating, Giant foxtail” value [1, 19] was 9. For the same compound, the “Giant foxtail plant response rating” value [1, 20] was 8, the “Plant response rating (0 to 10; 0 is no effect, 10 is complete control), Giant foxtail” value ([1]; Rate 250 g/ha, Postemergence) was 0 and the “Giant foxtail plant response rating” value [1, 21] was 0. The “Sugarbeets plant response rating” value [2, 17] was 0, the “Sugarbeets plant response rating” value [2, 18] was 0 and the “Plant response rating, Sugarbeets” value [2, 19] was 0. For the same compound, the “Sugarbeets plant response rating” value [2, 20] was 0, the “Sugarbeets plant response rating” value [2, 21] was 0 and the “Wild oats plant response rating” value [3, 17] was 0. For the same compound, the “Wild oats plant response rating” value [3, 18] was 0, the “Plant response rating, Wild oats” value [3, 19] was 0 and the “Wild oats plant response rating” value [3, 20] was 0. For the same compound, the “Wild oats plant response rating” value [3, 21] was 0, the “B. signalgrass plant response rating” value [4, 17] was 0 and the “B. signalgrass plant response rating” value [4, 18] was 0. The “Plant response rating, B. signalgrass” value [4, 19] was 3, the “B. signalgrass plant response rating” value [4, 22] was 0 and the “B. signalgrass plant response rating” value ([4]; Rate 125 g/ha, Postemergence, scale 0 (no effect) to 10 (complete control)) was 0. For the same compound, the “B. signalgrass plant response rating” value [4, 20] was 0, the “Plant response rating (0 to 10; 0 is no effect, 10 is complete control), B. signalgrass” value ([4]; Rate 250 g/ha, Postemergence) was 0 and the “B. signalgrass plant response rating” value [4, 21] was 0. The “Corn plant response rating” value [5, 17] was 0, the “Corn plant response rating” value [5, 18] was 0 and the “Plant response rating, Corn” value [5, 19] was 0. The “Corn plant response rating” value [5, 22] was 0, the “Corn plant response rating” value [5, 23] was 0 and the “Corn plant response rating” value [5, 20] was 0. For the same compound, the “Plant response rating (0 to 10; 0 is no effect, 10 is complete control), Corn” value ([5]; Rate 250 g/ha, Postemergence) was 0, the “Corn plant response rating” value [5, 21] was 0 and the “Redroot pigweed plant response rating” value [6, 17] was 0. The “Redroot pigweed plant response rating” value [6, 18] was 0, the “Plant response rating, Redroot pigweed” value [6, 19] was 0 and the “Redroot pigweed plant response rating” value [6, 20] was 0. The “Plant response rating (0 to 10; 0 is no effect, 10 is complete control), Redroot pigweed” value ([6]; Rate 250 g/ha, Postemergence) was 1, the “Redroot pigweed plant response rating” value [6, 21] was 2 and the “Velvetleaf plant response rating” value [7, 17] was 0. The “Velvetleaf plant response rating” value [7, 18] was 0, the “Plant response rating, Velvetleaf” value [7, 19] was 0 and the “Velvetleaf plant response rating” value [7, 20] was 0. For the same compound, the “Velvetleaf plant response rating” value [7, 21] was 1, the “Crabgrass plant response rating” value [8, 17] was 2 and the “Crabgrass plant response rating” value [8, 18] was 5. The “Plant response rating, Crabgrass” value [8, 19] was 5, the “Crabgrass plant response rating” value [8, 20] was 3 and the “Plant response rating (0 to 10; 0 is no effect, 10 is complete control), Crabgrass” value ([8]; Rate 250 g/ha, Postemergence) was 0. For the same compound, the “Crabgrass plant response rating” value [8, 21] was 0, the “Nutsedge plant response rating” value [9, 18] was 0 and the “Plant response rating, Nutsedge” value [9, 19] was 0. For the same compound, the “Nutsedge plant response rating” value [9, 20] was 0, the “Plant response rating (0 to 10; 0 is no effect, 10 is complete control), Nutsedge” value ([9]; Rate 250 g/ha, Postemergence) was 0 and the “Nutsedge plant response rating” value [9, 21] was 0. The “Cocklebur plant response rating” value [10, 17] was 0, the “Cocklebur plant response rating” value [10, 18] was 0 and the “Plant response rating, Cocklebur” value [10, 19] was 0. For the same compound, the “Cocklebur plant response rating” value [10, 22] was 0, the “Cocklebur plant response rating” value [10, 23] was 0 and the “Cocklebur plant response rating” value [10, 20] was 0. For the same compound, the “Plant response rating (0 to 10; 0 is no effect, 10 is complete control), Cocklebur” value ([10]; Rate 250 g/ha, Postemergence) was 0, the “Cocklebur plant response rating” value [10, 21] was 1 and the “Bedstraw plant response rating” value [11] was 0. The “Wheat plant response rating” value [12, 17] was 0, the “Wheat plant response rating” value [12, 18] was 0 and the “Plant response rating, Wheat” value [12, 19] was 0. The “Wheat plant response rating” value [12, 20] was 0, the “Wheat plant response rating” value [12, 21] was 2 and the “Rape plant response rating” value [13, 17] was 0. For the same compound, the “Rape plant response rating” value [13, 18] was 0, the “Plant response rating, Rape” value [13, 19] was 0 and the “Rape plant response rating” value [13, 20] was 0. For the same compound, the “Plant response rating (0 to 10; 0 is no effect, 10 is complete control), Rape” value ([13]; Rate 250 g/ha, Postemergence) was 0, the “Rape plant response rating” value [13, 21] was 0 and the “Blackgrass plant response rating” value [14, 17] was 0. For the same compound, the “Blackgrass plant response rating” value [14, 18] was 1, the “Plant response rating, Blackgrass” value [14, 19] was 4 and the “Blackgrass plant response rating” value [14, 22] was 0. For the same compound, the “Blackgrass plant response rating” value [14, 23] was 0, the “Blackgrass plant response rating” value [14, 20] was 0 and the “Plant response rating (0 to 10; 0 is no effect, 10 is complete control), Blackgrass” value ([14]; Rate 250 g/ha, Postemergence) was 0. The “Blackgrass plant response rating” value [14, 21] was 5, the “Morningglory plant response rating” value [15, 17] was 0 and the “Morningglory plant response rating” value [15, 18] was 0. For the same compound, the “Plant response rating, Morningglory” value [15, 19] was 0, the “Morningglory plant response rating” value [15, 20] was 0 and the “Plant response rating (0 to 10; 0 is no effect, 10 is complete control), Morningglory” value ([15]; Rate 250 g/ha, Postemergence) was 6. For the same compound, the “Morningglory plant response rating” value [15, 21] was 6, the “Soybean plant response rating” value [16, 17] was 0 and the “Soybean plant response rating” value [16, 18] was 0. For the same compound, the “Plant response rating, Soybean” value [16, 19] was 0, the “Soybean plant response rating” value [16, 20] was 0 and the “Soybean plant response rating” value [16, 21] was 4.
